The CheMixHub viscosity set

Assay: xn = mol fraction of the nth substance listed

CCCC[N+](CCCC)(CCCC)CCCC.O=[N+]([O-])[O-] + O
viscosity [mPa·s], 101 kPa
Details	298.15 K	308.15 K	318.15 K	323.15 K
x1 = 0.000175	0.9058	0.7311	0.6051	0.5548
x1 = 0.0007208	0.9399	0.7555	0.6231	0.5704
x1 = 0.0009037	0.9512	0.7635	0.629	0.5756
x1 = 0.001282	0.9739	0.7798	0.6411	0.586
x1 = 0.001513	0.9877	0.7898	0.6484	0.5923
x1 = 0.002132	1.024	0.8156	0.6675	0.609
x1 = 0.00641	1.328	1.024	0.8259	0.747
x1 = 0.006556	1.335	1.035	0.8318	0.7536
x1 = 0.009813	1.592	1.21	0.9594	0.8647
x1 = 0.0134	1.907	1.431	1.107	1.002
x1 = 0.0182	2.346	1.735	1.333	1.182
x1 = 0.01938	2.474	1.813	1.399	1.241
x1 = 0.02698	3.292	2.346	1.808	1.573
x1 = 0.03856	4.744	3.175	2.424	2.123
x1 = 0.06582	8.699	5.748	4.183	3.578
x1 = 0.08624	12.21	7.98	5.611	4.732
x1 = 0.1165	18.05	11.05	7.815	6.642

CCCC[NH2+]CCO.O=C([O-])c1ccccc1O + O
100 kPa, x2 = 0.142
Details	viscosity [mPa·s]
298 K	876
303 K	582.8
313 K	275.5
323 K	145

C[NH+](C)CCO.O=C([O-])CC(O)C(=O)O (stereo not given) + O
101 kPa, x2 = 0.89
Details	viscosity [mPa·s]
298 K	18.3
313 K	10.3

N + O
Details	viscosity [mPa·s]
293.15 K, 100 kPa, x1 = 0.1035	1.166
293.15 K, 101 kPa, x1 = 0.0111	1.025
303 K, 100 kPa, x1 = 0.053	0.86
303 K, 100 kPa, x1 = 0.105	0.92
303 K, 100 kPa, x1 = 0.157	0.97
303 K, 100 kPa, x1 = 0.209	1
303.15 K, 100 kPa, x1 = 0.05336	0.838
303.15 K, 100 kPa, x1 = 0.1035	0.994
313 K, 100 kPa, x1 = 0.053	0.69
313 K, 100 kPa, x1 = 0.105	0.72
313 K, 100 kPa, x1 = 0.157	0.75
313 K, 100 kPa, x1 = 0.209	0.79
313.15 K, 100 kPa, x1 = 0.05336	0.666
313.15 K, 100 kPa, x1 = 0.1035	0.833

N[C@@H](Cc1c[nH]cn1)C(=O)[O-].[K+] + O
viscosity [mPa·s], 101.3 kPa
Details	293.15 K	298.15 K	303.15 K	308.15 K	313.15 K	318.15 K	323.15 K
x1 = 0.00475	1.09	0.9617	0.8629	0.7803	0.7087	0.648	0.5955
x1 = 0.00983	1.242	1.093	0.9797	0.8847	0.8025	0.7344	0.6734
x1 = 0.0145	1.421	1.252	1.119	1.007	0.9131	0.8323	0.7621
x1 = 0.02037	1.662	1.457	1.299	1.167	1.053	0.9568	0.8736
x1 = 0.03224	2.28	2.002	1.768	1.578	1.417	1.279	1.164
x1 = 0.04399	3.048	2.632	2.315	2.049	1.828	1.641	1.484
